# From publication PMC2119004 (The Journal of Experimental Medicine, 1991)
# Ends that are not written are not given here.
# Experiments:
# I-Ad [1] = target: I-Ad (Mus musculus, UniProt P01921+P04228); experiment: Inhibition of biotin-Myo; type: binding; details: Fig. 7a; 1 mM DTT, 48 h
# apamin-specific T cells = details: live APC; reduced and alkylated apamin; cited from earlier work
# [2] = test system: insulin-immune or A(1-14)-immune H-2d and H-2b lymph node lymphocytes; experiment: Lymph node proliferation assay; type: cell-based, mouse; details: Fig. 6a,b; INS-primed BALB/c or C57BL/10 (H-2d, H-2b); 4 d, [3H]thymidine
# I-Ad [3] = target: T1, I-Ad (Mus musculus, UniProt P01921+P04228); experiment: Binding of biotinylated insulin to purified I-Ad; details: preliminary, data not shown; absence of reduction
# T1 sequence (P01921 whole entry, looked up): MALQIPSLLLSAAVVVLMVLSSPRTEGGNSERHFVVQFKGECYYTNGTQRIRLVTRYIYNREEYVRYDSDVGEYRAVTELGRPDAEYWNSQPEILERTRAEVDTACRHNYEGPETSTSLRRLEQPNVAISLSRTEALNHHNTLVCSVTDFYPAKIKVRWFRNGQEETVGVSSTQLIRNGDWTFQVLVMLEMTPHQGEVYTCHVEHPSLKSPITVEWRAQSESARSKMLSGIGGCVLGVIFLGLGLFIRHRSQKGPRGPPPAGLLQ
# T1 sequence (P04228 whole entry, looked up): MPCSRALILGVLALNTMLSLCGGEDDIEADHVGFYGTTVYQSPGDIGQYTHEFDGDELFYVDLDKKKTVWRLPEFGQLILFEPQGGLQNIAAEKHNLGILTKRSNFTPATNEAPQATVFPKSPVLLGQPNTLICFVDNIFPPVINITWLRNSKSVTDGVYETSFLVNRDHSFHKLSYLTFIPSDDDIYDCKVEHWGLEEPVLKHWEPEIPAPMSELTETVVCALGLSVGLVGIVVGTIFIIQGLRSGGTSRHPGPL
# [4] = test system: Bb-6 and Bd-l.4 T cell hybridomas; experiment: Stimulation of T cell hybridomas in the presence of live APC; type: cell-based, mouse; details: Fig. 2; for stimulation of T cells in the presence of live APC (in words): live TH2.2, serum-containing media, 24 h, HT-2 lymphokine assay
# I-Ed [5] = target: T2, I-Ed (Mus musculus, UniProt P01904+P01915); experiment: Binding of alkylated HEL; details: data not shown
# T2 sequence (P01904 whole entry, looked up): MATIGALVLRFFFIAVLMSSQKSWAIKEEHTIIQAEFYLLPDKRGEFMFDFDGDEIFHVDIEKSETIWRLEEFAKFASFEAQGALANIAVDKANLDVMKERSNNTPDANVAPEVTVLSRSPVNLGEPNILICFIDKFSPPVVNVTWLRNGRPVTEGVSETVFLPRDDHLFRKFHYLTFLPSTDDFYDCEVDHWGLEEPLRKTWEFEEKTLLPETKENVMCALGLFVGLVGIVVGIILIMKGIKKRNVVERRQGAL
# T2 sequence (P01915 whole entry, looked up): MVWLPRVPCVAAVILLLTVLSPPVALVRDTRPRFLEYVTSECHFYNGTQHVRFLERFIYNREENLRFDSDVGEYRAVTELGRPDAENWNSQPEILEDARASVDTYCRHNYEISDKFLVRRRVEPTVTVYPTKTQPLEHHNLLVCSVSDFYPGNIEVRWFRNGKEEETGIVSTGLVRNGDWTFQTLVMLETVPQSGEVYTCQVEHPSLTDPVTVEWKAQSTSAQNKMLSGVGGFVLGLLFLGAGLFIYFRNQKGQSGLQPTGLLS
# [6] = test system: I-Ab-restricted beef insulin-reactive T cell clones; details: large panel of I-Ab-restricted beef insulin-reactive T cell clones; cited from earlier work
# [7] = test system: Bb-6 and Bd-l.4 T cell hybridomas; experiment: Stimulation of T cell hybridomas by fixed APC; type: cell-based, mouse; details: for requirement of DTT for presentation by fixed APC (in words): Fig. 4, fixed TH2.2, 18 h at 37°C, 0.15 M citrate/phosphate, pH 5 (A(1-14) forms) or pH 6 (sulfonated A chain), ± 2 mM DTT
# I-Ed [8] = target: T2, I-Ed; experiment: Inhibition of biotin-HEL; type: binding; details: Fig. 8b; 2 µM biotin-HEL(104-120)
# [9] = test system: Bb-6 T cell hybridoma (I-Ab-restricted); details: cited from earlier work
# [10] = test system: Bd-l.4 T cell hybridoma (I-Ad-restricted); details: cited from earlier work
compound,measurement,setting,value
"O[C@@H](CS)[C@@H](O)CS (racemic) [DTT, dithiothreitol]",inhibition of peptide binding by DTT alone (in words),I-Ad [1],did not inhibit peptide binding
apamin,T cells failing to recognize apamin after reduction and alkylation,apamin-specific T cells,3/16
FVNQHLCGSHLVEALYLVCG- ERGFFYTPKA [B(1-30)],proliferation of beef insulin-immune lymphocytes (in words),[2],but not to B chain
biotinylated insulin: biotinylated insulin,binding of biotinylated insulin to I-Ad without reduction (in words),I-Ad [3],can bind to I-Ad
purified A chain from oxlNS: purified A chain from oxINS insulin,stimulation of T cells in the presence of live APC (in words),[4],do not stimulate these T cells
GMNAWVAWRNRC- KGTDVY [HEL(104-120)],effect of sulfhydryl alkylation on binding to I-Ed (in words),I-Ed [5],does not affect its capacity to bind purified FEd
Sulfonated A chain: sulfonated A chain of beef insulin purified from sulfonated insulin by reverse-phase HPLC,fraction of T cell clones responding to sulfonated A chain but not performic acid-oxidized insulin,[6],> 90%
same,requirement of DTT for presentation by fixed APC (in words),[7],"in the presence, but not the absence, of DTT were capable of stimulating Bd-l.4 and Bb-6"
same,fold lower concentration of intact insulin giving comparable stimulation,"[4]; live APC, both I-Ab- and I-Ad-restricted T cells",3-10 fold
GIVEQCCASVCSLY [A(1-14)],potency relative to insulin/DTT with fixed APC (in words),"[7]; Fig. 3, fixed TH2.2",equivalent
same,inhibition of biotin-HEL(104-120) binding to I-Ed (in words),I-Ed [8],only at relatively high
same,stimulation of T cells in the presence of live APC (in words),[4],essentially inactive
oxlNS: Performic acid-oxidized beef insulin,stimulation of T cells in the presence of live APC (in words),[4],do not stimulate these T cells
rcamlNS: reduced and carboxyamidomethylated beef insulin,stimulation of T cells in the presence of live APC (in words),[4],do not stimulate these T cells
INS: Beef insulin purchased from Elanco Products Co.,molar excess of DTT to insulin disulfides at optimal response,"[7]; Fig. 1b, fixed TH2.2, 33 µM INS",~10 fold
same,DTT concentration for optimal T cell responses,"[7]; Fig. 1b, fixed TH2.2, 18 h at 37°C in PBS, 33 µM INS",0.1 to 1 mM
same,activation of T cells by fixed APC exposed to antigen and DTT (in words),"[7]; fixed TH2.2, overnight, 2 mM DTT",able to activate Bb-6 and Bd-l.4 T cells
"air oxidized A(1-14): air-oxidized form of A(1-14) (GIVEQCCASVCSLY; disulfide (positions not given here); also: air-oxidized, interchain disulfides; UniProt P01317 85-98, looked up, fragment)",requirement of DTT for presentation by fixed APC (in words),[7],disulfide reduction was required for presentation
pork insulin: pork insulin,recognition by Bb-6 (in words),[9],"but not pork, insulin"
same,recognition by Bd-l.4 (in words),[10],partiallycrossreactivewith pork insulin
